Laboratory results taken from ChEMBL document CHEMBL1201862, “PubChem BioAssay data set” (2004).
Calls of active or inactive are those of the source.

Columns and labels:
cells [1] = assay: cells
Vero [2] = assay: cells; format: functional; details: Chlorocebus sabaeus
Vero [3] = assay: cells; format: functional, cell-based; details: Chlorocebus sabaeus
cells [4] = details: HEK293
Vero [5] = assay: West Nile virus antiviral activity, cell-based, CPE readout (AID 1621); format: functional; details: Chlorocebus sabaeus
cells [6] = details: A549
[7] = inhibitors of Vif binding to APOBEC3G peptide, primary screen, biochemical, TR-FRET, GST-Vif 1-94, biotin-A3G peptide, dose response retest (AID 1117319); format: functional;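 note: TR-FRET signal of purified GST-Vif binding a biotinylated A3G peptide; inhibitors lower the FRET signal by blocking Vif and A3G binding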
Cytochrome P450 2C19 = Cytochrome P450 2C19 (Homo sapiens, UniProt P33261); assay: qHTS Assay for Inhibitors and Substrates of Cytochrome P450 2C19. [Related pubchem assays: 410 ]; format: ADME; details: read-out: Potency
Cytochrome P450 2C19, sequence (P33261 whole entry): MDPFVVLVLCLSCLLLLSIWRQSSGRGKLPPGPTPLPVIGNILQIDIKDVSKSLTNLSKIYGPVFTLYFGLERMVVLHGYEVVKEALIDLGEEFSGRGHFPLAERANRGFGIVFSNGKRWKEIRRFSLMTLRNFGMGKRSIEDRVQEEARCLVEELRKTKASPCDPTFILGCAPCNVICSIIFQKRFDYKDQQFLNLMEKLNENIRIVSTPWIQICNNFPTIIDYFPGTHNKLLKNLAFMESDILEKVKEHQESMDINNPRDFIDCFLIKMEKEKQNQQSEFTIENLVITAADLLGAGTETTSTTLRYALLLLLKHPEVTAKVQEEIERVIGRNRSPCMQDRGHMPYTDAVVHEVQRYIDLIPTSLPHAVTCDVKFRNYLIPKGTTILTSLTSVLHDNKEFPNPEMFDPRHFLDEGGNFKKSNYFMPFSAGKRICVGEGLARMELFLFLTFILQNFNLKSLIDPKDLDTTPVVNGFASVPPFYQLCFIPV

Cytochrome P450 3A4 [8] = target: T1, Cytochrome P450 3A4 (Homo sapiens, UniProt P08684); details: Potency
T1 sequence (P08684 whole entry): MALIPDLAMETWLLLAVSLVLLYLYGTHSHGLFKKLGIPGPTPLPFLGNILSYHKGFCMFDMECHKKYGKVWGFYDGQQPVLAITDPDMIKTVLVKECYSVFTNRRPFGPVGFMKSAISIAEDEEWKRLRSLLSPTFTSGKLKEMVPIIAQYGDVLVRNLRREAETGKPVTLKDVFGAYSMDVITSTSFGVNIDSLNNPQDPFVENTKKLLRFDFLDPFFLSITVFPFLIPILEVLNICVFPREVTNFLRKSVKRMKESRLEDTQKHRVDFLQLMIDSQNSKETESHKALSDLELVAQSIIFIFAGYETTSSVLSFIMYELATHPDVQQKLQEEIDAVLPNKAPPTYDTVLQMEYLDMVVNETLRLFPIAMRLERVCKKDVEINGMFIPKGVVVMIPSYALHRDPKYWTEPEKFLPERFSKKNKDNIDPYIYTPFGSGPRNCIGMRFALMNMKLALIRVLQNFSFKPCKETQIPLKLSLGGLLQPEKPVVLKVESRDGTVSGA

[9] = target: Solute carrier family 12 member 2/member 5 (Homo sapiens, UniProt P55011+Q9H2X9); assay: KCC2 and NKCC1 inhibition by rubidium flux, cell-based, NKCC1 counter-screen (AID 1734); format: functional, HEK293
[10] = Luminescent dose response cell-based high throughput screening assay for inhibitors of the Janus kinase 2 mutant JAK2V617F. [Related pubchem assays: 1446 (Primary screen.), 1521 (Confirmation assay.), 1486 (Counter screen.)]; format: functional
[11] = Artemis endonuclease inhibitor potency, dose response, biochemical, fluorescence intensity (AID 720701); format: functional;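 note: Artemis endonuclease enzyme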
Cytochrome P450 3A4 [12] = target: T1, Cytochrome P450 3A4
Leucine aminopeptidase = target: T2, Leucine aminopeptidase (Plasmodium falciparum 3D7, UniProt Q8IL11); assay: P. falciparum M17LAP inhibitors, primary screen, biochemical, fluorogenic H-Leu-NHMec substrate, 1536-well (AID 1619); format: functional
T2 sequence (Q8IL11 whole entry): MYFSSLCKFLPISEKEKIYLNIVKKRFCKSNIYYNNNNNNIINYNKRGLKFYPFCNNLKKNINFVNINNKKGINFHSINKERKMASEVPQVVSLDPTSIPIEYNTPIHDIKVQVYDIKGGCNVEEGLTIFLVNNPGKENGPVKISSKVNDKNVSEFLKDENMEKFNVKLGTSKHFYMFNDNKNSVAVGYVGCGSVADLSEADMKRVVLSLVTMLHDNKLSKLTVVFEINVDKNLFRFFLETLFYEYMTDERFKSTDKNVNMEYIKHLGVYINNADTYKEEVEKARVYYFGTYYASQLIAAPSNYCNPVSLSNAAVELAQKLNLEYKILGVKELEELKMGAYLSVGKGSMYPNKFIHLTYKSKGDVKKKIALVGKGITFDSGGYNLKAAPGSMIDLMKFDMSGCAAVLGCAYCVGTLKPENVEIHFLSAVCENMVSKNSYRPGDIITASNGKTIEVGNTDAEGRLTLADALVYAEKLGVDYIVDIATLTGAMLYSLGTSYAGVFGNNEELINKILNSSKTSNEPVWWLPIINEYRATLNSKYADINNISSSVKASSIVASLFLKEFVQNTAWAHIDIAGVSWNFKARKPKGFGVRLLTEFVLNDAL

Cytochrome P450 1A2 = target: T3, Cytochrome P450 1A2 (Homo sapiens, UniProt P05177);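 note: PubChem cytochrome P450 panel assay, CYP1A2 panel member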
T3 sequence (P05177 whole entry): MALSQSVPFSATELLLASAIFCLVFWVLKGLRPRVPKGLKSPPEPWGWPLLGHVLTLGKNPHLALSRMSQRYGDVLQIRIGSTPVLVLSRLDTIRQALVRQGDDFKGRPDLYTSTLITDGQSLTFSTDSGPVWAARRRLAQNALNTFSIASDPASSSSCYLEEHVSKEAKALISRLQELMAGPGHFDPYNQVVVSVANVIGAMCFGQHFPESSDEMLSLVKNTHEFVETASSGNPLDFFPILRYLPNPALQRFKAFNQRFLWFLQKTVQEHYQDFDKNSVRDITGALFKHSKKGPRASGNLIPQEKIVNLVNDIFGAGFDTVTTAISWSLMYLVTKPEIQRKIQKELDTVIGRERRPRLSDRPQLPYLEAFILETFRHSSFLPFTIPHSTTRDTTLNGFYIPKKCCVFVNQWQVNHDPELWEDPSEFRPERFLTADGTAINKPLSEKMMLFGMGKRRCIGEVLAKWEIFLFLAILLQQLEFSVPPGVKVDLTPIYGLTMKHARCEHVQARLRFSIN

Cc1cccn2c(=O)c3cc(C(=O)NCCN4CCOCC4)c(=N)n(Cc4ccc(F)cc4)c3nc12
AC50 (cells [1]): 1.96 µM (active) | CC50 (Vero [2]): > 25 µM (active) | IC50 (Vero [3]): > 25 µM (active) | AC50 (cells [4]): 48.4 µM (active) | IC50 (Vero [5]): 25.6 µM (active) | AC50 (cells [6]): 18.3 µM (active)

Cc1cccc(N2CCN(CC(=O)NCC3CCCCC3)CC2)c1C
IC50 [7]: > 100 µM (active)

CCOC(=O)OCC1OC(c2ccccc2)C=CC1Oc1cccc(N(C)C)c1 (configuration not stated)
AC50 (Cytochrome P450 2C19): 3.16 µM (inconclusive) | AC50 (Cytochrome P450 3A4 [8]): 3.16 µM (inconclusive)

CC1Cc2ccccc2N1C(=O)c1ccc(N2CCCC2)c([N+](=O)[O-])c1 (configuration not stated)
IC50 [9]: 51 µM (active)

O=C(NC1C=CS(=O)(=O)C1)c1sc2ccccc2c1Cl (configuration not stated)
CC50 (Vero [2]): 23.9 µM (active) | IC50 (Vero [3]): > 25 µM (active) | IC50 [10]: 2.82 µM (active)

Cc1sc(NC(=O)C2C3CCC(O3)C2C(=O)O)c(C(=O)OC(C)C)c1-c1ccc(Cl)cc1 (configuration not stated)
IC50 [11]: > 20 µM (inactive) | AC50 (Cytochrome P450 3A4 [12]): 15.8 µM (inconclusive) | IC50 (Leucine aminopeptidase): 10.1 µM (active) | AC50 (Cytochrome P450 1A2): 22.4 µM (inconclusive)
